Data published in publication PMC10175918 (Communications Biology, 2023).
Where two headings read alike, the source gives them in different places.

Legend:
Test in all cases: TGFα-shedding assay-based GPCR screening with chimeric Gα subunit proteins
Assay type in all cases: cell-based
[1] = molecular target: T1, 348 GPCRs (Homo sapiens, UniProt P41180); details: 10µM, Favipiravir 100μM
T1 construct: expressed in transfected cells; host or cells: HEK293A
T1 sequence (P41180 20-1078): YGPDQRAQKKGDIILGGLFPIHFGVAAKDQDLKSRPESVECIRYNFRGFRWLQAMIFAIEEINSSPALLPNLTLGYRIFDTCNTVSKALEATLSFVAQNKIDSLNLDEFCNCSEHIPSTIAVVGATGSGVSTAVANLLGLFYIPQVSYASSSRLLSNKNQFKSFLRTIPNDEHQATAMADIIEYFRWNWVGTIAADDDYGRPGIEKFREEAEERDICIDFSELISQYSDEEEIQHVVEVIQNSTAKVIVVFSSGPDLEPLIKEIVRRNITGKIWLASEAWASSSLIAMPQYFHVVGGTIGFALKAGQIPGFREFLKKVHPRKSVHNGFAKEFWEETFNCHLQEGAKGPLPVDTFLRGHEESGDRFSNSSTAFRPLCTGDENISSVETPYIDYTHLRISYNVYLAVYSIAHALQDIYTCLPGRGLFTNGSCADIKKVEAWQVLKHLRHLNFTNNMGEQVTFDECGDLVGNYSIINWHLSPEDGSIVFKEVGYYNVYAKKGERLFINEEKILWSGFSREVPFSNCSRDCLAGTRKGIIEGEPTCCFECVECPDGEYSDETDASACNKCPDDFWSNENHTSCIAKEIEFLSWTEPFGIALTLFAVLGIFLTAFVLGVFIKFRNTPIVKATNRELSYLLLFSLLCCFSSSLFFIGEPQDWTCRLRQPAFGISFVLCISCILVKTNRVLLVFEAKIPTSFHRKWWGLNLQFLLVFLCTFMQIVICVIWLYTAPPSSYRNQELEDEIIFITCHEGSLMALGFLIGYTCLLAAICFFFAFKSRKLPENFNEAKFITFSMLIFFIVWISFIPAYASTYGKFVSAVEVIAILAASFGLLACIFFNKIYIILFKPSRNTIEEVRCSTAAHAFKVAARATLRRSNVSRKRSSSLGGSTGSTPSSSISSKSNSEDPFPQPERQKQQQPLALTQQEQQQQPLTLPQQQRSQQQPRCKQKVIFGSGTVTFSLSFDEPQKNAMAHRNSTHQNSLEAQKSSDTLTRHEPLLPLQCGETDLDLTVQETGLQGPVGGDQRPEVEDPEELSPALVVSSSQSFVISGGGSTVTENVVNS

[2] = molecular target: T2, 348 GPCRs (Homo sapiens, UniProt Q96P67); details: 10µM, Favipiravir 100μM
T2 construct: expressed in transfected cells; host or cells: HEK293A

[3] = molecular target: T3, 348 GPCRs (Homo sapiens, UniProt Q99705)
T3 construct: expressed in transfected cells; host or cells: HEK293A

[4] = molecular target: T4, 348 GPCRs (Homo sapiens, UniProt P47775)
T4 construct: expressed in transfected cells; host or cells: HEK293A
T4 sequence (P47775 1-334): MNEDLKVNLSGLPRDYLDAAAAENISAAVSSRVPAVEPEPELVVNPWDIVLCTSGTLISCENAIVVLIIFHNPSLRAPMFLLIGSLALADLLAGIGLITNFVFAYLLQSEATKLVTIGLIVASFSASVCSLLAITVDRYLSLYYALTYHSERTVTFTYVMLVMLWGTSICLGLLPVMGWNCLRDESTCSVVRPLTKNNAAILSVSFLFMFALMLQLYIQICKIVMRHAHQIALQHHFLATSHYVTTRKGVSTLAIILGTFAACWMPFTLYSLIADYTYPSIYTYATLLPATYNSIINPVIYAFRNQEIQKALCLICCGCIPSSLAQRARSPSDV

[5] = molecular target: T5, 348 GPCRs (Homo sapiens, UniProt Q5T601)
T5 construct: expressed in transfected cells; host or cells: HEK293A
T5 sequence (Q5T601 20-910): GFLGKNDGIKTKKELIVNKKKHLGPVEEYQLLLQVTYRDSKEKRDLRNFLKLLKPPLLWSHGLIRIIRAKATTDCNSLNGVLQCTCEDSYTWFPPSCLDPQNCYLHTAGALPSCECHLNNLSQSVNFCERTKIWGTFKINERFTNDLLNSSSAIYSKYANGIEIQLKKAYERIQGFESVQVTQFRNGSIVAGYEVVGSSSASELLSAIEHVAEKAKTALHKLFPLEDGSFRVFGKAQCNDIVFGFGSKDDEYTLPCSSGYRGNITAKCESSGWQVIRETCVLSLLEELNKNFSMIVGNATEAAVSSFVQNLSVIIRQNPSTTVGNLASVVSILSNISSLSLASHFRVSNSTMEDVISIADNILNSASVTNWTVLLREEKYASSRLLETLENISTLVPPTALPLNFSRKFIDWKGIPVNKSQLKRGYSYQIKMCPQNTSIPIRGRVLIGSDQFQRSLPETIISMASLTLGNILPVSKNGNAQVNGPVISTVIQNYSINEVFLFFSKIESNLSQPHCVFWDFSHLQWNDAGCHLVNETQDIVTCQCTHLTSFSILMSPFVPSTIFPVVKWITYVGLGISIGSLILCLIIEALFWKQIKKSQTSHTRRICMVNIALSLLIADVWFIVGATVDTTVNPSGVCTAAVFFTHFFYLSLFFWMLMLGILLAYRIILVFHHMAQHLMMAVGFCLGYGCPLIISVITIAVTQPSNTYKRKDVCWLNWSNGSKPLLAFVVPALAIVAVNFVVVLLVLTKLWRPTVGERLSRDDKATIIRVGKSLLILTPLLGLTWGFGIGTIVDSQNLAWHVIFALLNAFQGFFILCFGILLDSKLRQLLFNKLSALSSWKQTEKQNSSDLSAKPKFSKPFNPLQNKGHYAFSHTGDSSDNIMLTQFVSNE

[6] = CASR (calcium sensing receptor), read-out: % GPCR activation compared to TPA
[7] = GPR82 (G Protein-Coupled Receptor 82), read-out: % GPCR activation compared to TPA
[8] = GPCR MCHR1 (melanin concentrating hormone receptor 1), read-out: % GPCR activation compared to TPA
[9] = GPCR GPR12 (G protein-coupled receptor 12), read-out: % GPCR activation compared to TPA
[10] = GPCR GPR110 (G-protein-coupled receptor 110 (ADGRF1)), read-out: % GPCR activation compared to TPA
[11] = read-out: % GPCR activation compared to TPA, CASR (calcium sensing receptor)
[12] = read-out: % GPCR activation compared to TPA, GPR82 (G Protein-Coupled Receptor 82)
[13] = read-out: % GPCR activation compared to TPA, GPCR MCHR1 (melanin concentrating hormone receptor 1)
[14] = read-out: % GPCR activation compared to TPA, GPCR GPR12 (G protein-coupled receptor 12)
[15] = read-out: % GPCR activation compared to TPA, GPCR GPR110 (G-protein-coupled receptor 110 (ADGRF1))

T2 sequence (Q96P67 whole entry): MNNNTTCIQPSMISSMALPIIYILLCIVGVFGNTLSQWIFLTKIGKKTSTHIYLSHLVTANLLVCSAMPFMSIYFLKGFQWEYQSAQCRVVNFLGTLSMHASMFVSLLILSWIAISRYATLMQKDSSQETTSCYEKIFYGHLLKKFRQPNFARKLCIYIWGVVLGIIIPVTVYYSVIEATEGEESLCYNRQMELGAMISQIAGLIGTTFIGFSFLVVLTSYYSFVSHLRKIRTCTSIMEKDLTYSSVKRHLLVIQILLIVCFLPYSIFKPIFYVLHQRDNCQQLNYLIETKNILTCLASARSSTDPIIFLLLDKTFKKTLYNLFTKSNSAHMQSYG
T3 sequence (Q99705 whole entry): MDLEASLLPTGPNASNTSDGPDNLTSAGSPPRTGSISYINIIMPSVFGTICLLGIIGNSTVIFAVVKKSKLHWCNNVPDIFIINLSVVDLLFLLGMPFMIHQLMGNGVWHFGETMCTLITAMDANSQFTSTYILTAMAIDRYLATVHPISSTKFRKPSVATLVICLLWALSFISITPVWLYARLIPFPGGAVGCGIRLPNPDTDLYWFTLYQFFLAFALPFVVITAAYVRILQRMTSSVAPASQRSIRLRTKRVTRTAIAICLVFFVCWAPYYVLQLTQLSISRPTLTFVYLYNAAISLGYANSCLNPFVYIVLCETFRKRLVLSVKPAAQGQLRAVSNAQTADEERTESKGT

Row | Structure (SMILES) | activation at 100 µM [1, 6] | activation at 100 µM [2, 7] | activation at 10 µM [3, 8] | activation at 10 µM [4, 9] | activation at 10 µM [5, 10] | activation at 100 µM ([3]; GPCR MCHR1 (melanin concentrating hormone receptor 1), 100μM, read-out: % GPCR activation compared to TPA) | activation at 100 µM ([4]; GPCR GPR12 (G protein-coupled receptor 12), 100μM, read-out: % GPCR activation compared to TPA) | activation at 100 µM ([5]; GPCR GPR110 (G-protein-coupled receptor 110 (ADGRF1)), 100μM, read-out: % GPCR activation compared to TPA) | activation at 100 µM [1, 11] | activation at 100 µM [2, 12] | activation at 10 µM [3, 13] | activation at 10 µM [4, 14] | activation at 10 µM [5, 15]
1 | CCC(CC)COC(=O)[C@H](C)N[P@](=O)(OC[C@H]1O[C@@](C#N)(c2ccc3c(N)ncnn23)[C@H](O)[C@@H]1O)Oc1ccccc1 [remdesivir] | – | – | – | – | – | – | – | – | 4.48% | -0.315% | -1.97% | 5.35% | -1.5%
2 | CC(C)OC(=O)[C@H](C)N[P@](=O)(OC[C@H]1O[C@@H](n2ccc(=O)[nH]c2=O)[C@](C)(F)[C@@H]1O)Oc1ccccc1 [sofosbuvir] | – | – | – | – | – | – | – | – | -3.31% | 0.262% | -4.22% | -0.471% | 0.252%

The next lines start with results.

Row | activation at 100 µM [1, 6] | activation at 100 µM [2, 7] | activation at 10 µM [3, 8] | activation at 10 µM [4, 9] | activation at 10 µM [5, 10] | activation at 100 µM ([3]; GPCR MCHR1 (melanin concentrating hormone receptor 1), 100μM, read-out: % GPCR activation compared to TPA) | activation at 100 µM ([4]; GPCR GPR12 (G protein-coupled receptor 12), 100μM, read-out: % GPCR activation compared to TPA) | activation at 100 µM ([5]; GPCR GPR110 (G-protein-coupled receptor 110 (ADGRF1)), 100μM, read-out: % GPCR activation compared to TPA) | Structure (SMILES) | activation at 100 µM [1, 11] | activation at 100 µM [2, 12] | activation at 10 µM [3, 13] | activation at 10 µM [4, 14] | activation at 10 µM [5, 15]
3 | 1.55% | -1.55% | -1.77% | 4.27% | -1.67% | – | – | – | N#C[C@@]1(c2ccc3c(N)ncnn23)O[C@H](CO)[C@@H](O)[C@H]1O [GS441524] | – | – | – | – | –
4 | 0.748% | -0.0995% | – | – | – | -2.9% | 3.7% | -3.88% | NC(=O)c1nc(F)cnc1O [favipiravir, 6-fluoro-3-hydroxy-2-pyrazinecarboxamide] | – | – | – | – | –
5 | -0.137% | -1.43% | -2.69% | 0.357% | -0.00488% | – | – | – | CC(C)C(=O)OC[C@H]1O[C@@H](n2ccc(NO)nc2=O)[C@H](O)[C@@H]1O [molnupiravir] | – | – | – | – | –
